Numbered stars: 1 amine (or outer) side, 2 acyl side, 3 side chain; on linkers, the order of the positions; unused ones are H or OH. Square brackets hold non-standard residues; d marks the D form. Peptide text beside a SMILES is read from it. * marks the point of attachment. Abu(4,4,4-F3) = N[C@@H](CC(F)(F)F)C(=O)O; X4 = C[C@](N[*:1])(C(=O)[*:2])C(F)(F)F; NH(1-CH2NMe2-cBu) = CN(C)CC1(N*)CCC1; Gly(octyl) = CCCCCCCC[C@H](N)C(=O)O; Oxazole4CO(2-Me) = Cc1nc(C(=O)*)co1; Benzoyl(4-F) = O=C(c1ccc(F)cc1)*; hCha = N[C@@H](CCC1CCCCC1)C(=O)O; X6 = CC(C)(CN[*:1])C(=O)[*:2]; β3hL = CC(C)C[C@H](N)CC(=O)O; Aib = CC(C)(N)C(=O)O; βAla = NCCC(=O)O
test system: cutaneous squamous cell carcinoma cell line SCC12; assay: In vitro anti-proliferative assay (resazurin) in SCC12; type: cell-based; details: SCC12, 72 hours
From the text: Methodology. The cutaneous squamous cell carcinoma cell culture SCC12 was cultivated in keratinocyte-SFM media (KSFM, Cat #17005042, Gibco) supplemented with human recombinant epidermal growth factor 1-53 (EGF 1-53) and bovine pituitary extract (BFE).
Vehicle treated wells were set to 100% viability.

**Q.** With `CC(C)C[C@@H](CC(=O)NC(C)(C)C(=O)NC(C)(C)C(=O)NCCC(=O)NC1(CN(C)C)CCC1)NC(=O)C[C@H](CC(C)C)NC(=O)C(C)(C)NC(=O)C[C@H](CC(C)C)NC(=O)[C@H](CCC1CCCCC1)NC(=O)[C@@H]1CCCN1C(=O)c1ccc(F)cc1` [Compound 21315, (3S)-3-[(2S)-4-cyclohexyl-2-{[(2S)-1-(4-fluorobenzoyl)pyrrolidin-2-yl]formamido}butanamido]-N-(1-{[(2S)-1-{[(2S)-1-({1-[(1-{[2-({1-[(dimethylamino)methyl]cyclobutyl}carbamoyl)ethyl]carbamoyl}-1-methylethyl)carbamoyl]-1-methylethyl}carbamoyl)-4-methylpentan-2-yl]carbamoyl}-4-methylpentan-2-yl]carbamoyl}-1-methylethyl)-5-methylhexanamide] ({Benzoyl(4-F)}-P[hCha][β3hL][Aib][β3hL][β3hL][Aib][Aib][βAla]-{NH(1-CH2NMe2-cBu)}) as the compound, how does the IC50 read?
**A.** Its IC50 is 3100 nM.

**Q.** How did the IC50 turn out when `CCCCCCCC[C@H](NC(=O)[C@@H]1CCCN1C(=O)c1coc(C)n1)C(=O)N[C@@H](CC(C)C)C(=O)NC(C)(C)C(=O)N[C@@H](CC(C)C)C(=O)N[C@@H](CC(C)C)C(=O)NC(C)(C)C(=O)NC(C)(C)C(=O)NCCC(=O)NC1(CN(C)C)CCC1` [Compound 6253, (2S)—N-[(1S)-1-[(1-{[(1S)-1-{[(1S)-1-({1-[(1-{[2-({1-[(dimethylamino)methyl]cyclobutyl}carbamoyl)ethyl]carbamoyl}-1-methylethyl)carbamoyl]-1-methylethyl}carbamoyl)-3-methylbutyl]carbamoyl}-3-methylbutyl]carbamoyl}-1-methylethyl)carbamoyl]-3-methylbutyl]-2-{[(2S)-1-(2-methyl-1,3-oxazole-4-carbonyl)pyrrolidin-2-yl]formamido}decanamide] ({Oxazole4CO(2-Me)}-P[Gly(octyl)]L[Aib]LL[Aib][Aib][βAla]-{NH(1-CH2NMe2-cBu)}) was run?
**A.** The IC50 was 140 nM.

**Q.** `CC(C)C[C@H](NC(=O)CC(C)(C)NC(=O)[C@H](CC(C)C)NC(=O)[C@H](CCC1CCCCC1)NC(=O)[C@@H]1CCCN1C(=O)c1ccc(F)cc1)C(=O)N[C@@H](CC(C)C)C(=O)NC(C)(C)CC(=O)NC(C)(C)CC(=O)NCCC(=O)NC1(CN(C)C)CCC1` [Compound 21368, (2S)-2-[(2S)-4-cyclohexyl-2-{[(2S)-1-(4-fluorobenzoyl)pyrrolidin-2-yl]formamido}butan-amido]-N-(1-{[(1S)-1-{[(1S)-1-({1-[(1-{[2-({1-[(dimethylamino)methyl]cyclobutyl}carba-moyl)ethyl]carbamoyl}-2-methylpropan-2-yl)carbamoyl]-2-methylpropan-2-yl}carbamoyl)-3-methylbutyl]carbamoyl}-3-methylbutyl]carbamoyl}-2-methylpropan-2-yl)-4-methylpentanamide] was tested. Which IC50 did it give?
**A.** Its IC50 is over 10000 nM.

**Q.** `CC(C)C[C@H](NC(=O)[C@H](CCC1CCCCC1)NC(=O)[C@@H]1CCCN1C(=O)c1ccc(F)cc1)C(=O)NC(C)(C)C(=O)N[C@@H](CC(C)C)C(=O)N[C@@H](CC(C)C)C(=O)NC(C)(C)C(=O)N[C@@](C)(C(=O)NCCC(=O)NC1(CN(C)C)CCC1)C(F)(F)F` [Compound 21359, (2S)-2-[(2S)-4-cyclohexyl-2-{[(2S)-1-(4-fluorobenzoyl)pyrrolidin-2-yl]formamido}butanamido]-N-(1-{[(1S)-1-{[(1S)-1-[(1-{[(1S)-1-{[2-({1-[(dimethylamino)methyl]cyclobutyl}carbamoyl)ethyl]carbamoyl}-2,2,2-trifluoro-1-methylethyl]carbamoyl}-1-methylethyl)carbamoyl]-3-methylbutyl]carbamoyl}-3-methylbutyl]carbamoyl}-1-methylethyl)-4-methylpentanamide] ({Benzoyl(4-F)}-P[hCha]L[Aib]LL[Aib][X4][βAla]-{NH(1-CH2NMe2-cBu)}) was tested. Which IC50 did it give?
**A.** The IC50 was 360 nM.

**Q.** With `CC(C)C[C@H](NC(=O)[C@H](CC(C)C)NC(=O)C(C)(C)NC(=O)[C@H](CC(C)C)NC(=O)[C@H](CCC1CCCCC1)NC(=O)[C@@H]1CCCN1C(=O)c1ccc(F)cc1)C(=O)NC(C)(C)C(=O)NCC(C)(C)C(=O)NCCC(=O)NC1(CN(C)C)CCC1` [Compound 21164, (2S)-2-[(2S)-4-cyclohexyl-2-{[(2S)-1-(4-fluorobenzoyl)pyrrolidin-2-yl]formamido}butan-amido]-N-(1-{[(1S)-1-{[(1S)-1-({1-[(2-{[2-({1-[(dimethylamino)methyl]cyclobutyl}carba-moyl)ethyl]carbamoyl}-2,2-dimethylethyl)carbamoyl]-1-methylethyl}carbamoyl)-3-methylbutyl]carbamoyl}1-3-methylbutyl]carbamoyl}-1-methylethyl)-4-methylpentanamide] ({Benzoyl(4-F)}-P[hCha]L[Aib]LL[Aib][X6][βAla]-{NH(1-CH2NMe2-cBu)}) as the compound, how does the IC50 read?
**A.** Its IC50 is 712 nM.

**Q.** `CN(C)CC1(NC(=O)CCNC(=O)C(C)(C)NC(=O)C(C)(C)NC(=O)[C@H](CC(F)(F)F)NC(=O)[C@H](CC(F)(F)F)NC(=O)C(C)(C)NC(=O)[C@H](CC(F)(F)F)NC(=O)[C@H](CCC2CCCCC2)NC(=O)[C@@H]2CCCN2C(=O)c2ccc(F)cc2)CCC1` [Compound 21372, (2S)-4-cyclohexyl-N-[(1S)-1-[(1-{[(1S)-1-{[(1S)-1-({1-[(1-{[2-({1-[(dimethylamino)methyl]cyclobutyl}carbamoyl)ethyl]carbamoyl}-1-methylethyl)carbamoyl]-1-methylethyl}carba-moyl)-3,3,3-trifluoropropyl]carbamoyl}-3,3,3-trifluoropropyl]carbamoyl}-1-methylethyl)carbamoyl]-3,3,3-trifluoropropyl]-2-{[(2S)-1-(4-fluorobenzoyl)pyrrolidin-2-yl]formamido}butanamide] ({Benzoyl(4-F)}-P[hCha][Abu(4,4,4-F3)][Aib][Abu(4,4,4-F3)][Abu(4,4,4-F3)][Aib][Aib][βAla]-{NH(1-CH2NMe2-cBu)}) was tested. Which IC50 did it give?
**A.** Its IC50 is 442 nM.

**Q.** For `CC(C)C[C@H](NC(=O)[C@H](CCC1CCCCC1)NC(=O)[C@@H]1CCCN1C(=O)c1ccc(F)cc1)C(=O)NC(C)(C)C(=O)N[C@@H](CC(C)C)C(=O)N[C@@H](CC(F)(F)F)C(=O)NC(C)(C)C(=O)NC(C)(C)C(=O)NCCC(=O)NC1(CN(C)C)CCC1` [Compound 21369, (2S)-2-[(2S)-4-cyclohexyl-2-{[(2S)-1-(4-fluorobenzoyl)-pyrrolidin-2-yl]formamido}butan-amido]-N-(1-{[(1S)-1-{[(1S)-1-({1-[(1-{[2-({1-[(dimethylamino)methyl]cyclobutyl}carba-moyl)ethyl]carbamoyl}-1-methylethyl)carbamoyl]-1-methylethyl}carbamoyl)-3,3,3-trifluoropropyl]carbamoyl}-3-methylbutyl]carbamoyl}-1-methylethyl)-4-methylpentanamide] ({Benzoyl(4-F)}-P[hCha]L[Aib]L[Abu(4,4,4-F3)][Aib][Aib][βAla]-{NH(1-CH2NMe2-cBu)}), which IC50 is on record?
**A.** Its IC50 is 167 nM.

Reference: patent US20260049101A1, “TOPICAL TREATMENT OF SKIN CANCER USING OLIGOPEPTIDES” (BACOBA AG, priority 2022, published 2026)
